# Assay results published in patent US10201564B2, “Methods of using inhaled nitric oxide gas for treatment of acute respiratory distress syndrome in children” (Mallinckrodt Hospital Products IP Limited, priority 2014, dated 2019).
# Test system: pediatric subjects with acute hypoxemic respiratory failure (AHRF)
# Experiment: Pediatric AHRF study: adverse events, serious adverse events, deaths, discontinuations
# Format: in vivo, human
# Details: 5 ppm
# Procedure: This was a prospective, multicenter, randomized, double-blind, placebo-controlled, parallel-group study of the safety and efficacy of inhaled nitric oxide in pediatric subjects with acute hypoxemic respiratory failure (AHRF). The subjects were randomized to receive either 5 ppm inhaled nitric oxide or placebo.
# Nitric Oxide for inhalation at 5 ppm was administered continuously into the inspiratory limb of the ventilator circuit in mechanically ventilated subjects using a blinded version of the INOvent® delivery system.
# Subjects received 100% treatment gas (nitric oxide 5 ppm or placebo [nitrogen gas]) until Day 28 or extubation, whichever occurred first.
# This was a prospective, multicenter, randomized, double-blind, placebo-controlled, Phase III study to assess the effects of nitric oxide for inhalation in the treatment of acute hypoxic respiratory failure (AHRF) in pediatric subjects. The study population consisted of male and female pediatric subjects, aged 44 weeks postconceptional age to 16 years age, who were admitted to the pediatric intensive care unit (PICU) and who required intubation because of AHRF. The inclusion/exclusion criteria are described in the Patients section below.
# Standardized ventilatory management and weaning procedures were used. Ventilatory management was used based on an “open lung approach” using positive end-expiratory pressure (PEEP) to increase lung volume and limiting tidal volumes to reduce plateau pressures. Subjects received nitric oxide for inhalation at 5 ppm or placebo (100% Grade 5 nitrogen gas) into the inspiratory limb of the ventilator circuit using a blinded version of the INOvent® delivery system. The subjects were treated until Day 28 or extubation, whichever occurred first. Subjects were assessed daily using a spontaneous breathing trial, according to the institution's standard of care. Arterial blood gases (ABG), ventilator settings, methemoglobin, oxygenation index, systolic blood pressure, diastolic blood pressure, Pediatric Risk of Mortality (PRISM) III score, and subject positioning (prone or supine) were performed/recorded at specified times during the study. Selected centers also performed plasma cytokine assays, bronchoalveolar lavage fluid (BALF) assays, and a 6-month follow-up assessment.
# [1] = AE with death as outcome, not suspected related to treatment
# [2] = AE with death as outcome, suspected related to treatment
# [3] = relationship to study treatment Not Suspected
# [4] = relationship to study treatment Suspected
smiles,measurement,setting,value
"[N]=O [Nitric Oxide, nitric oxide]",Hepatic failure,[1],0 (0.0) n (%)
same,Hypotension,[1],1 (3.8%) n (%)
same,Intracranial pressure increased,[1],0 (0.0) n (%)
same,Multi-organ failure,[1],0 (0.0) n (%)
same,Pancreatitis,[1],0 (0.0) n (%)
same,"Pneumonia, aspergillus",[1],0 (0.0) n (%)
same,Pulmonary hemorrhage,[1],0 (0.0) n (%)
same,Renal failure,[1],0 (0.0) n (%)
same,Renal impairment,[1],0 (0.0) n (%)
same,Sepsis,[1],0 (0.0) n (%)
same,Bradycardia,[2],0 (0.0) n (%)
same,Brain edema,[2],0 (0.0) n (%)
same,Cardiac arrest,[2],0 (0.0) n (%)
same,Diabetic ketoacidosis,[2],0 (0.0) n (%)
same,Hemolytic anemia,[2],0 (0.0) n (%)
same,Hepatic failure,[2],0 (0.0) n (%)
same,Hypotension,[2],0 (0.0) n (%)
same,Intracranial pressure increased,[2],0 (0.0) n (%)
same,Multi-organ failure,[2],0 (0.0) n (%)
same,Pancreatitis,[2],0 (0.0) n (%)
same,"Pneumonia, aspergillus",[2],0 (0.0) n (%)
same,Pulmonary hemorrhage,[2],0 (0.0) n (%)
same,Renal failure,[2],0 (0.0) n (%)
same,Renal impairment,[2],0 (0.0) n (%)
same,Sepsis,[2],0 (0.0) n (%)
same,"Adverse event where treatment was stopped: Bradycardia, subjects n (%)",by actual treatment received,1 (3.8%)
same,"Adverse event where treatment was stopped: Hypotension, subjects n (%)",by actual treatment received,1 (3.8%)
same,"Adverse event where treatment was stopped: Pulmonary hemorrhage, subjects n (%)",by actual treatment received,0 (00) ^
same,"Adverse event where treatment was stopped: Sepsis, subjects n (%)",by actual treatment received,0 (0.0)^
same,"Serious adverse event: Bradycardia, subjects n (%)",by actual treatment received,1 (3.8%)
same,"Serious adverse event: Brain edema, subjects n (%)",by actual treatment received,0 (0.0)
same,"Serious adverse event: Cardiac arrest, subjects n (%)",by actual treatment received,0 (0.0)
same,"Serious adverse event: Cerebral artery occlusion, subjects n (%)",by actual treatment received,0 (0.0)
same,"Serious adverse event: Diabetic ketoacidosis, subjects n (%)",by actual treatment received,0 (0.0)
same,"Serious adverse event: Hemolytic anemia, subjects n (%)",by actual treatment received,0 (0.0)
same,"Serious adverse event: Hemopneumothorax, subjects n (%)",by actual treatment received,0 (0.0)
same,"Serious adverse event: Hemothorax, subjects n (%)",by actual treatment received,0 (0.0)
same,"Serious adverse event: Hepatic failure, subjects n (%)",by actual treatment received,0 (0.0)
same,"Serious adverse event: Hypotension, subjects n (%)",by actual treatment received,1 (3.8%)
same,"Serious adverse event: Hypoxia, subjects n (%)",by actual treatment received,0 (0.0)
same,"Serious adverse event: Intracranial pressure increased, subjects n (%)",by actual treatment received,0 (0.0)
same,"Serious adverse event: Multi-organ failure, subjects n (%)",by actual treatment received,0 (0.0)
same,"Serious adverse event: Pancreatitis, subjects n (%)",by actual treatment received,0 (0.0)
same,"Serious adverse event: Pneumonia, aspergillus, subjects n (%)",by actual treatment received,0 (0.0)
same,"Serious adverse event: Pulmonary hemorrhage, subjects n (%)",by actual treatment received,0 (0.0)
same,"Serious adverse event: Renal failure, acute, subjects n (%)",by actual treatment received,0 (0.0)
same,"Serious adverse event: Renal failure, subjects n (%)",by actual treatment received,0 (0.0)
same,"Serious adverse event: Renal impairment, subjects n (%)",by actual treatment received,0 (0.0)
same,"Serious adverse event: Respiratory failure, subjects n (%)",by actual treatment received,0 (0.0)
same,"Serious adverse event: Sepsis, subjects n (%)",by actual treatment received,0 (0.0)
same,"Serious adverse event: Subdural hematoma, subjects n (%)",by actual treatment received,0 (0.0)
same,"Serious adverse event: Unevaluable event, subjects n (%)",by actual treatment received,0 (0.0)
same,likelihood to experience adverse events versus placebo,in words,no more likely
same,overall safety and tolerability in children with AHRF,in words,safe and well tolerated
same,"safety profile versus placebo (methemoglobin levels, frequency of AEs, mortality rates)",in words,compare favorably
same,Subjects with one or more AEs,n = 26,16 (61.5%) n (%)
same,Subjects with one or more AEs suspected to be related to study treatment,n = 26,0 (0)^ ^ n (%)
same,Subjects with one or more SAEs,n = 26,1 (3.9%) n (%)
same,Subjects with one or more severe AEs,n = 26,2 (7.7%) n (%)
same,Subjects withdrawn due to AEs,n = 26,1 (3.9%) n (%)
same,Total AEs leading to discontinuation of study treatment,n = 26,2
same,Total AEs suspected to be related to study treatment,n = 26,0
same,Total SAEs,n = 26,2
same,Total SAEs or AEs leading to discontinuation of study treatment suspected to be related to study treatment,n = 26,0
same,Total severe AEs,n = 26,4
same,Total AEs,"n = 26, counted by dictionary-derived term",52
same,"Adverse event where treatment was stopped: Bradycardia, subjects n (%)",[3],1 (3.8%)
same,"Adverse event where treatment was stopped: Hypotension, subjects n (%)",[3],1 (3.8%)
same,"Adverse event where treatment was stopped: Pulmonary hemorrhage, subjects n (%)",[3],0 (0.0)^
same,"Adverse event where treatment was stopped: Sepsis, subjects n (%)",[3],0 (0.0)^
same,"Serious adverse event: Bradycardia, subjects n (%)",[3],1 (3.8%)
same,"Serious adverse event: Brain edema, subjects n (%)",[3],0 (0.0)
same,"Serious adverse event: Cardiac arrest, subjects n (%)",[3],0 (0.0)
same,"Serious adverse event: Cerebral artery occlusion, subjects n (%)",[3],0 (0.0)
same,"Serious adverse event: Diabetic ketoacidosis, subjects n (%)",[3],0 (0.0)
same,"Serious adverse event: Hemolytic anemia, subjects n (%)",[3],0 (0.0)
same,"Serious adverse event: Hemopneumothorax, subjects n (%)",[3],0 (0.0)
same,"Serious adverse event: Hemothorax, subjects n (%)",[3],0 (0.0)
same,"Serious adverse event: Hepatic failure, subjects n (%)",[3],0 (0.0)
same,"Serious adverse event: Hypotension, subjects n (%)",[3],1 (3.8%)
same,"Serious adverse event: Hypoxia, subjects n (%)",[3],0 (0.0)
same,"Serious adverse event: Intracranial pressure increased, subjects n (%)",[3],0 (0.0)
same,"Serious adverse event: Multi-organ failure, subjects n (%)",[3],0 (0.0)
same,"Serious adverse event: Pancreatitis, subjects n (%)",[3],0 (0.0)
same,"Serious adverse event: Pneumonia, aspergillus, subjects n (%)",[3],0 (0.0)
same,"Serious adverse event: Pulmonary hemorrhage, subjects n (%)",[3],0 (0.0)
same,"Serious adverse event: Renal failure, acute, subjects n (%)",[3],0 (0.0)
same,"Serious adverse event: Renal failure, subjects n (%)",[3],0 (0.0)
same,"Serious adverse event: Renal impairment, subjects n (%)",[3],0 (0.0)
same,"Serious adverse event: Respiratory failure, subjects n (%)",[3],0 (0.0)
same,"Serious adverse event: Sepsis, subjects n (%)",[3],0 (0.0)
same,"Serious adverse event: Subdural hematoma, subjects n (%)",[3],0 (0.0)
same,"Serious adverse event: Unevaluable event, subjects n (%)",[3],0 (0.0)
same,"Adverse event where treatment was stopped: Bradycardia, subjects n (%)",[4],0 (0.0)
same,"Adverse event where treatment was stopped: Hypotension, subjects n (%)",[4],0 (0.0)
same,"Adverse event where treatment was stopped: Pulmonary hemorrhage, subjects n (%)",[4],0 (0.0)
same,"Adverse event where treatment was stopped: Sepsis, subjects n (%)",[4],0 (0.0)
same,"Serious adverse event: Bradycardia, subjects n (%)",[4],0 (0.0)
same,"Serious adverse event: Brain edema, subjects n (%)",[4],0 (0.0)
same,"Serious adverse event: Cardiac arrest, subjects n (%)",[4],0 (0.0)
same,"Serious adverse event: Cerebral artery occlusion, subjects n (%)",[4],0 (0.0)
same,"Serious adverse event: Diabetic ketoacidosis, subjects n (%)",[4],0 (0.0)
same,"Serious adverse event: Hemolytic anemia, subjects n (%)",[4],0 (0.0)
same,"Serious adverse event: Hemopneumothorax, subjects n (%)",[4],0 (0.0)
same,"Serious adverse event: Hemothorax, subjects n (%)",[4],0 (0.0)
same,"Serious adverse event: Hepatic failure, subjects n (%)",[4],0 (0.0)
